Results reported in patent publication US20250066310A1, “MULTI-SUBSTITUTED URACIL DERIVATIVE AND PREPARATION METHOD THEREFOR AND APPLICATION THEREOF” (HANGZHOU ADAMERCK PHARMLABS INC., priority 2021, published 2025).
Marks after values point to notes of the source that are not given here.

How the values were obtained:
[1] = test system: rats with focal cerebral ischemia (MCAO)/reperfusion; experiment: Prophylactic administration, cerebral ischemia-reperfusion injury (MCAO/R) in rats; assay type: in vivo; details: Mean ± SD, n = 8; for Cerebral infarction rate (%): 3 days before MCAO/R, 24 h after reperfusion; for behavioral score / cerebral water content (%): MCAO/R
Protocol: Experimental methods: SD rats were randomly divided into 6 groups, set as sham group, model control group, positive control drug ozagrel (6 mg/kg) group, and test drug compound 1-1 high (9 mg/kg), medium (3 mg/kg), and low (1 mg/kg) dose group. The administered groups were preadministered by tail vein injection, and the sham and model control groups were given an equal volume of saline, once a day for 3 consecutive days. Ten minutes after the last administration, the rat MCAO/R model was established, and reperfusion was performed 2 h after ischemia. 24 h after MCAO reperfusion, neurobehavioral scores were performed to determine the neurological function of rats; 2,3,5-triphenyltetrazolium chloride (TTC) staining method was used to determine the rate of cerebral infarction and cerebral water content in rats.

[2] = test system: ICR mice; experiment: Effect on in vivo bleeding time in mice (tail cut); details: 100 mg/kg i.g. once daily for 4 days
Protocol: A normal control group (blank), positive control group (clopidogrel) and experimental groups were set up with 10 ICR mice (male, weighed about 25 g) in each group. Animals in each group were administered the corresponding drug solution by oral gavage (i.g.) at 0.1 ml/10 g body weight, and the blank control group was given distilled water, once daily for 4 days. On the 4th day, 1 h after the administration of the drug, the animals were anesthetized by intraperitoneal injection of sodium barbiturate at a dose of about 50 mg/kg, and 20 min later, the tails of the mice were cut at a distance of 3 mm from the tip of the tail, and at regular intervals, absorbent paper was used to dip the blood at the severed tails until no blood exuded, which was recorded as the bleeding time, and the results of the experiment were shown in Table 2.
Calculation equation for prolongation of bleeding time: […]

[3] = test system: mice injected with ellagic acid via the tail vein; experiment: Effect on in vivo clotting time in mice (ellagic acid tail vein injection); details: Mus musculus, iv, 100 mg/kg i.g. for 4 days, ellagic acid i.v. 1 h after last dose, vs model group, read-out: Clotting time prolongation (%)
Protocol: The control and model groups were gavaged with distilled water, and the positive clopidogrel group, and the test substance group were gavaged orally (i.g.) with drug solution in a volume of 0.1 mL/10 g for 4 consecutive days. 1 h after the last administration, all groups were injected with 0.15 mL/10 g of 0.3% ellagic acid solution via tail vein injection except for the blank group which was injected with physiological saline: 0.1 ml/10 g. After 5 min, glass capillaries were used for blood collection through the retro-orbital venous plexus, and the appearance time of coagulation filaments was recorded by glass capillaries at 10-second intervals.
Calculation equation for prolongation of clotting time:
Prolongation of clotting time (%)=[(mean value of clotting time in blank or administered group/mean value of clotting time in model group)−1]×100%

[4] = test system: rats with myocardial ischemia-reperfusion injury; experiment: Myocardial ischemia-reperfusion injury caused by coronary artery ligation in rats; assay type: in vivo; details: x ± s, n = 8; for Pathological Score: myocardium
Protocol: Experimental Methods: A model of myocardial ischemia/reperfusion (MI/R) injury caused by coronary artery ligation was established in rats, and animals were grouped into high-dose (20 mg/kg), medium-dose (10 mg/kg), low-dose (5 mg/kg) of the test drug, clopidogrel (7.5 mg/kg), sham, and model groups. Equal volume of 0.5% CMC-Na was administered at 0.5 ml/100 g body weight in both sham and model groups. The drug was administered by gavage (i.g.) once a day for 5 consecutive days. Modeling was performed 30 min after the last administration, and after modeling, 8 successfully modeled rats were selected from each group for subsequent experiments. The sham group was placed a wire under the left anterior descending branch of the coronary artery according to the model preparation method without ligation, and the other groups were modeled according to the model preparation method. The effects of the test drugs on the cardiac infarction rate and the biochemical indexes of creatine kinase (CK), lactate dehydrogenase (LDH), malondialdehyde (MDA), and superoxide dismutase (SOD) in plasma were detected, and TTC staining of the heart was performed to detect the effects of the test drugs on the area of myocardial infarction in MI/R rats.

[5] = test system: acute inflammatory response caused by ellagic acid (serum cytokines); experiment: Antibody microarray detection of serum factors in ellagic acid model mice; assay type: in vivo, ICR mice; set-up: TNFa / IL-6 / IL-1b / IL-5 / IL-13 / IL-1α / IL-1β / IL-2 / IL-3 / IL-4 / IFNg / CD40: unit not given here
Protocol: Experimental methods: ICR male mice, weighed about 25 g, were randomly divided into four groups: normal group, ellagic acid model group, 1-1 group, and 1-22 group, with four mice in each group. Mice in 1-1 group and 1-22 group were given 1-1, 100 mg/kg and 1-22, 100 mg/kg by gavage once a day respectively. 1 h after the third administration, except for the normal control group, the other three groups of mice were injected into the tail vein with 0.10 mL/10 g of 0.3% ellagic acid saline solution, and 1 h after injection, whole blood was collected from each animal, and centrifuged (3,000 rpm/min) for 10 min after 30 min of standing, and then centrifuged to obtain the serum. The serum from each group of animal was mixed in an EP tube, transported at −80° C., and sent for antibody microarray detection.

[6] = Table 16, pooled serum, 100 mg/kg by gavage
[7] = Table 17, pooled serum, 100 mg/kg by gavage
[8] = Table 18, pooled serum, 100 mg/kg by gavage
[9] = Table 19, pooled serum, 100 mg/kg by gavage

In the case of `CCOC(=O)CCNC(=O)CCNc1cc(=O)n(C)c(=O)n1C` [Compound 1-1], the “Cerebral infarction rate (%)” value ([1]; 1 mg/kg tail vein) is reported as 25.20 ± 9.71%, the behavioral score ([1]; 1 mg/kg tail vein) is reported as 2.63 ± 0.74 and the “cerebral water content (%)” value ([1]; 1 mg/kg tail vein) is reported as 81.81 ± 0.78%. For the same compound, the “Cerebral infarction rate (%)” value ([1]; 3 mg/kg tail vein) was 22.74 ± 9.12%, the behavioral score ([1]; 3 mg/kg tail vein) was 2.00 ± 0.76 and the “cerebral water content (%)” value ([1]; 3 mg/kg tail vein) was 81.57 ± 0.87%. For the same compound, the “Cerebral infarction rate (%)” value ([1]; 9 mg/kg tail vein) was 17.22 ± 9.35 %, the behavioral score ([1]; 9 mg/kg tail vein) was 1.50 ± 0.53 and the “cerebral water content (%)” value ([1]; 9 mg/kg tail vein) was 80.94 ± 0.92 %. For the same compound, the “Bleeding time prolongation (%)” value [2] was −8.89%, the change in vivo at 100 mg/kg [3] was 43.3% and the “Cardiac infarction rate (%)” value ([4]; 5 mg/kg i.g. once a day for 5 days) was 12.12 ± 4.45 %. For the same compound, the “Cardiac infarction rate (%)” value ([4]; 10 mg/kg i.g. once a day for 5 days) was 10.99 ± 2.39 %, the “Cardiac infarction rate (%)” value ([4]; 20 mg/kg i.g. once a day for 5 days) was 7.27 ± 1.91**^ΔΔ % and the “Pathological Score” value ([4]; 5 mg/kg i.g.) was 2.00 ± 0.53. The “Pathological Score” value ([4]; 10 mg/kg i.g.) was 1.88 ± 0.83, the “Pathological Score” value ([4]; 20 mg/kg i.g.) was 1.75 ± 0.71 and the “CK (U/mL)” value ([4]; plasma, 5 mg/kg i.g.) was 0.33 ± 0.15 U/mL. For the same compound, the “LDH (U/L)” value ([4]; plasma, 5 mg/kg i.g.) was 5406.70 ± 458.93*^ΔΔ U/L, the “MDA” value ([4]; plasma, 5 mg/kg i.g.) was 13.23 ± 2.89 nmol/mL and the “SOD (U/mL)” value ([4]; plasma, 5 mg/kg i.g.) was 28.29 ± 1.24 U/mL. The “CK (U/mL)” value ([4]; plasma, 10 mg/kg i.g.) was 0.27 ± 0.11 U/mL, the “LDH (U/L)” value ([4]; plasma, 10 mg/kg i.g.) was 3732.06 ± 573.02**^ΔΔ U/L and the “MDA (nmol/mL)” value ([4]; plasma, 10 mg/kg i.g.) was 5.47 ± 1.71**^ΔΔ nmol/mL. For the same compound, the “SOD (U/mL)” value ([4]; plasma, 10 mg/kg i.g.) was 23.99 ± 2.80 U/mL, the “CK (U/mL)” value ([4]; plasma, 20 mg/kg i.g.) was 0.08 ± 0.047 U/mL and the “LDH (U/L)” value ([4]; plasma, 20 mg/kg i.g.) was 4366.03 ± 782.76**^ΔΔ U/L. The “MDA (nmol/mL)” value ([4]; plasma, 20 mg/kg i.g.) was 8.77 ± 2.19**^ΔΔ nmol/mL, the “SOD (U/mL)” value ([4]; plasma, 20 mg/kg i.g.) was 41.02 ± 2.33 U/mL and the IL-6 [5, 6] was 18,375.64*. For the same compound, the RANTES/ccl5 [5, 6] was 2,825.89*, the TNFa [5, 6] was 386.79 and the IL-1b ([5]; Table 16, pooled serum, 100 mg/kg by gavage once a day x3, 1 h after ellagic acid) was 312.69. The IL-1α [5, 7] was 1,118.99*, the IL-1β [5, 7] was 312.69 and the IL-2 [5, 7] was 565.56. The IL-3 [5, 7] was 1,106.55, the IL-4 [5, 7] was 1,367.20 and the IL-5 [5, 7] was 285.74*. For the same compound, the IL-6 [5, 7] was 18,375.64*, the IL-13 [5, 7] was 800.30* and the Eotaxin/CCL11 [5, 8] was 4,696.55. For the same compound, the MCP1/CCL2 [5, 8] was 3,045.61, the MIP-3a/CCL20 [5, 8] was 1,505.55* and the RANTES/CCL5 [5, 8] was 2,825.89*. For the same compound, the CD40 [5, 9] was 639.15, the IFNg [5, 9] was 295.07* and the “number of down-regulated differential proteins” value ([5]; interleukin factors (Table 17), compared with the model group) was “four”.
